In paper PMC4580987, “Catalytic site inhibition of insulin-degrading enzyme by a small molecule induces glucose intolerance in mice” (Nature Communications, 2015):
“Also recorded” adds a separate entry of the source.

How the values were obtained:
Microsomal stability = assay type: in vitro ADME; details: male, CD-1, pH 7.4, mouse liver microsomes, read-out: Microsomal stability m (t1/2)
Description: Male mouse (CD-1) liver microsomes (BD Gentest) were used. All incubations were performed in duplicate in a shaking water bath at 37 °C. The incubation mixtures contained 1 μM compound with 1% methanol used as a vehicle, mouse liver microsomes (0.6 mg of microsomal protein per mL), 5 mM MgCl2, 1 mM NADP, 5 mM glucose 6-phosphate, 0.4 U ml^−1 glucose 6-phosphate dehydrogenase, and 50 mM potassium phosphate buffer (pH 7.4) in a final volume of 1.5 ml. Samples were taken at 5, 10, 20, 30 and 40 min after microsome addition, and reactions stopped by adding ice-cold acetonitrile containing 1 μM internal standard (four volumes). Centrifugation of the samples for 10 min at 10,000g and 4 °C allowed to pellet precipitated microsomal proteins, and supernatant was subjected LC−MS/MS analysis, in acetonitrile containing 1 μM internal standard. Each compound was quantified by converting the corresponding analyte/internal standard peak area ratios to percentage drug remaining, using the initial ratio values in control incubations as 100%. Propranolol, known as a high hepatic clearance drug in rodents, was used as a quality-control compound for the microsomal incubations. […] The slope of the linear regression from log percentage remaining versus incubation time relationships (-k) was used in the conversion to in vitro t1/2 values by: t1/2=−0.693/k.

[1] = LogD measurement octanol/PBS pH 7.4; assay type: physicochemical; details: read-out: Logd7.4
Description: Ten microlitre of a 10 mM solution in DMSO of the compound are diluted either in 490 μl of PBS pH 7.4 or in organic solvent MeOH in a 700 μl-microtube (in triplicate). The tubes are gently shaken 24 h at room temperature, then centrifuged for 5 min at 4,000 r.p.m. The mixtures are filtered over 0.45 μm filters (Millex-LH Millipore). Twenty microlitre of sample are diluted in 180 μl of MeOH. The solubility is determined by the ratio of mass signal area PBS/ organic solvent. Forty microlitre of a 10 mM solution in DMSO of the compound were diluted in 1.960 ml of a 1/1 octanol /PBS at pH 7.4 mixture. The mixture was gently shaken 2 h at room temperature. Twenty microlitre of each phase was diluted in 480 μl of MeOH and analysed by LC–MS. Each compound is tested in triplicate. Log D was determined as the logarithm of the ratio of concentration of product in octanol and PBS respectively, determined by mass signals.

[2] = system: human SY5Y neuroblastoma cells; assay: Aβ1–40 secretion by differentiated SH-SY5Y cells (ELISA); assay type: cell-based; details: 10 μM and 30 μM, 48 h
Description: The human neuroblastoma cell lines SH-SY5Y were provided from ATCC (cat. no. crl2266) with a Certificate of Analysis and not checked in the lab for mycoplasma contamination. […] SH-SY5Y were seeded in a 96-well plate at 200,000 cells per cm^2. […] Differentiated cells were then incubated with compounds at 10 μM and 30 μM in presence of 0.1% DMSO.

Caco-2 permeation assay = assay type: in vitro ADME; details: human, 37 °C, pH 7.4/7.4
Source text: Caco-2 cells were provided by ATCC and checked for mycoplasma contamination. These cells are not listed by ICLAC as misidentified cell lines (October 3rd, 2014). A total of 0.4 × 10^5 Caco-2 cells (ATCC no. […] The paracellular barrier characteristics of Caco-2 cells monolayer was monitored using (i) measurement of […] and (ii) measurement of the permeability to the non-permeant fluorescent molecule, Lucifer Yellow. Caco-2 cells were trypsinized after 3 days of incubation while they cover 80–90% of the flask and seeded at a density of 5 × 10^5 in 75 cm^2 flasks in complete medium supplemented with 73 nM (∼0.04 μg ml^−1) of the antibacterial puromycin (3′-[α-amino-p-methoxyhydrocinnamamido]-3′-deoxy-N,Ndimethyladenosine dihydrochloride). After 5–6 days, Caco-2 cells reach high cells density (>0.5 × 10^5 cells per cm^2) and are then passage into cell HTS 24-well plates with 0.4 μm polycarbonate membrane inserts. Cells were seeded at 600,000 cells per cm^2 (200,000 cells per insert) and cultivated for 6 days in complete medium with puromycin. Media was replaced every second days. Compound solutions were prepared in HEPES-buffered Ringerŕs (RH) solution (NaCl 150 mM, KCl 5.2 mM, CaCl2 2.2 mM, MgCl2 0.2 mM, NaHCO3 6 mM, Glucose 2.8 mM, HEPES 5 mM, water for injection), pH=7.4 at a final concentration of 1 or 10 μM for tested drugs. For A→B transport experiment, 0.2 ml of the compound solution was placed on the apical side of the cells and samples were taken from the basolateral compartment. For B→A transport experiment 0.8 ml of the solution was placed on the basolateral side of the cells and samples were taken from apical side. Transport Studies were done in Transwell polycarbonate: HTS 24-well plate inserts (surface area: 0.33 cm^2–0.4 μm pore size). Cells were equilibrated for 10 min in transport buffer prior to the transport experiment, and then incubations with compounds were performed at 37 °C under agitation. After 1 h aliquots were taken from each compartment and sampled in 96-well plates with glass insert. Permeation and the % of recovery are calculated using the formulas below: […]

[3] = system: insulin receptor, Akt and ERK phosphorylation; assay: Insulin signalling by western blotting in liver and muscle; assay type: in vivo, mouse; details: 50 mg kg^−1 ip, after insulin injection
Description: Liver and muscle were homogenized in a lysis buffer (1% triton, 0.5 % deoxycholate, 10 mM Na pyruvate, 2 mM Na Vanadate, 100 mM NaF) supplemented with the proteases inhibiteurs cocktails) and the resulting homogenate clarified by centrifugation. Proteins expression and phosphorylation were evaluated by western blot analysis. The signals were detected with a Pierce ECL western blotting substrate (Thermo scientific), according the manufacturer instructions. Primary antibodies were diluted at 1/1,000 and incubated overnight in PBS 0.1% Tween 20, 5% milk.

isolated mouse islets = details: 3 or 10 µM
Description: Digestion was stopped by addition of cold HBSS with 10% FCS. The islets were washed twice in HBSS with FCS and once in RPMI with FCS. […] The next day, the islets were incubated in fresh DMEM with 10% FCS without glucose for 90 min. Then glucose at 2.8 mM together with BDM44378 was added; after 1 h, the supernatant was removed and replaced by fresh medium with 28 mM glucose, followed by another 1-h incubation in the presence or absence of inhibitor.

O=C(C[C@@H](Cc1ccc2ccccc2c1)n1cc(CNC(=O)c2ccc(F)cc2)nn1)NO [Compound 1]
half-life at 1 μM (Microsomal stability): 20 min
logD [1]: 2.2
Aβ1–40 in culture supernatants [2]: significant elevations; also recorded: significantly increased; also recorded: dose-dependent increase
Papp A→B at 1 h, 1 μM (Caco-2 permeation assay; Caco-2, A→B, 1 μM): 3.3 ×10⁻⁶ cm/s
Papp A→B at 1 h, 10 μM (Caco-2 permeation assay; Caco-2, A→B, 10 μM): 2.4 ×10⁻⁶ cm/s
Papp B→A at 1 h, 1 μM (Caco-2 permeation assay; Caco-2, B→A, 1 μM): 19 ×10⁻⁶ cm/s
Papp B→A at 1 h, 10 μM (Caco-2 permeation assay; Caco-2, B→A, 10 μM): 17 ×10⁻⁶ cm/s
insulin signalling: phosphorylation of insulin receptor, Akt and ERK in liver and muscle [3]: Increase insulin signaling; also recorded: increased the phosphorylation
insulin in the supernatant of islets, Ide−/− (isolated mouse islets; islets from Ide−/− mice): did not respond
insulin detectable in the supernatant of islets, wild-type (isolated mouse islets; islets from wild-type C57BL/6J mice, 2.8 and 28 mM glucose): increased, in a dose-dependent manner
